Test results reported in ChEMBL document CHEMBL1201862, “PubChem BioAssay data set” (2004).
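How tested: cells in 96-well plates exposed to compound for 48 hours at five concentrations. GI50 marks 50% less growth.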 Active and inactive are the calls of the source. No stated cut-off is given here; in the data, active = GI50 up to about 1.1 µM and inactive = higher.

Legend:
Test in all cases: growth of human tumour cells (NCI), 48 h
786-0 = tested on: 786-0
ACHN = tested on: ACHN
CAKI-1 = tested on: CAKI-1
COLO 205 = tested on: COLO 205
EKVX = tested on: EKVX
HCT-116 = tested on: HCT-116
HOP-92 = tested on: HOP-92
HT-29 = tested on: HT-29
KM12 = tested on: KM12
MCF7 = tested on: MCF7
NCI-H522 = tested on: NCI-H522
OVCAR-3 = tested on: OVCAR-3
OVCAR-4 = tested on: OVCAR-4
SK-MEL-5 = tested on: SK-MEL-5
SK-OV-3 = tested on: SK-OV-3
SN12C = tested on: SN12C
SNB-19 = tested on: SNB-19
SNB-75 = tested on: SNB-75
RXF 393 = tested on: RXF 393

Measured: GI50

COC(=O)C(=O)C(C(=O)C(=O)Nc1ccc(Cl)cc1Cl)c1nc2ccc(Cl)cc2nc1O (stereo unspecified)
inactive: 786-0 > 100 µM | ACHN > 100 µM | CAKI-1 > 100 µM | COLO 205 > 100 µM | EKVX 17.1 µM | HCT-116 > 100 µM | HOP-92 58.5 µM | HT-29 > 100 µM | KM12 > 100 µM | MCF7 > 100 µM | NCI-H522 > 100 µM | OVCAR-3 > 100 µM | OVCAR-4 > 100 µM | SK-MEL-5 > 100 µM | SK-OV-3 > 100 µM | SN12C > 100 µM | SNB-19 > 100 µM | SNB-75 65.2 µM

Nc1ccc2c(c1)NCCN2
inactive: 786-0 > 100 µM | ACHN 6.53 µM | CAKI-1 12.9 µM | COLO 205 9.66 µM | EKVX 54.1 µM | HCT-116 > 100 µM | HOP-92 > 100 µM | HT-29 42.3 µM | KM12 > 100 µM | MCF7 4.53 µM | NCI-H522 7.64 µM | OVCAR-3 > 100 µM | OVCAR-4 > 100 µM | RXF 393 > 100 µM | SK-MEL-5 5.11 µM | SN12C 48.8 µM | SNB-19 9.84 µM | SNB-75 > 100 µM

COc1ccc(-c2oc3cc(O)cc(O)c3c(=O)c2OC)cc1 [ERMANIN]
inactive: ACHN 24.3 µM | CAKI-1 24.3 µM | COLO 205 20.7 µM | EKVX 51.2 µM | HCT-116 39.9 µM | HOP-92 3.23 µM | HT-29 24.7 µM | MCF7 38.5 µM | NCI-H522 2.48 µM | OVCAR-3 21 µM | OVCAR-4 44.6 µM | SK-MEL-5 16.7 µM | SK-OV-3 4.66 µM | SNB-19 32.7 µM

COc1ccc(-c2nc3c(C(=O)NCCN(C)C)cccc3c3ccccc23)cc1
inactive: 786-0 2.49 µM | ACHN 3.25 µM | CAKI-1 1.71 µM | COLO 205 1.99 µM | EKVX 6.78 µM | HCT-116 3.46 µM | HOP-92 3.51 µM | HT-29 2.51 µM | KM12 3.58 µM | MCF7 2.46 µM | NCI-H522 2.65 µM | OVCAR-3 4.57 µM | OVCAR-4 2.81 µM | SK-MEL-5 1.74 µM | SN12C 4.2 µM | SNB-19 3.42 µM | SNB-75 5.13 µM

C1=C\SS/C=C\SS/1
inactive: 786-0 17 µM | ACHN 27.9 µM | CAKI-1 > 10 µM | COLO 205 39.3 µM | EKVX 46.8 µM | HCT-116 34.4 µM | HOP-92 24.3 µM | HT-29 15.6 µM | KM12 36 µM | MCF7 15.9 µM | OVCAR-4 46.8 µM | RXF 393 32.2 µM | SK-MEL-5 24.5 µM | SK-OV-3 > 100 µM | SN12C 61.9 µM | SNB-19 32.3 µM

O=C1CC(CC(O)C(O)CO)CC(=O)N1 (stereo unspecified)
inactive: 786-0 > 100 µM | ACHN > 100 µM | CAKI-1 > 100 µM | EKVX > 100 µM | HCT-116 > 100 µM | HOP-92 > 100 µM | HT-29 > 100 µM | KM12 > 100 µM | MCF7 > 100 µM | NCI-H522 > 100 µM | OVCAR-3 > 100 µM | SK-MEL-5 > 100 µM | SN12C > 100 µM | SNB-19 > 100 µM

Cc1cc(C)cc(Nc2nnc3n2S(=O)(=O)c2cc(C#N)c(Cl)cc2S3)c1
inactive: 786-0 2.22 µM | ACHN 3.08 µM | CAKI-1 3.24 µM | COLO 205 10.9 µM | EKVX 8.67 µM | HCT-116 2.17 µM | HT-29 1.83 µM | KM12 1.89 µM | MCF7 1.87 µM | NCI-H522 1.87 µM | OVCAR-3 1.57 µM | OVCAR-4 7.98 µM | RXF 393 1.59 µM | SK-MEL-5 7.55 µM | SK-OV-3 6.56 µM | SN12C 2.59 µM | SNB-19 6.78 µM | SNB-75 2.32 µM

C[C@H](CCC(=O)O)[C@H]1CC[C@H]2[C@@H]3C(=O)C[C@@H]4C[C@H](O)CC[C@]4(C)[C@H]3C[C@H](O)[C@]12C
inactive: 786-0 > 100 µM | ACHN > 100 µM | CAKI-1 > 100 µM | COLO 205 > 100 µM | EKVX > 100 µM | HCT-116 > 100 µM | HOP-92 > 100 µM | HT-29 > 100 µM | KM12 > 100 µM | MCF7 > 100 µM | NCI-H522 > 100 µM | OVCAR-4 > 100 µM | RXF 393 > 100 µM | SN12C > 100 µM | SNB-19 > 100 µM | SNB-75 85.5 µM
